In patent US8785459B2, “Quinazoline compounds as kinase inhibitors” (Development Center for Biotechnology, priority 2011, dated 2014) one finds IC50 and inhibition data, which are given here for 17 molecules.

For assay [1], the target named is B-Raf (Homo sapiens (Human), UniProt P15056). Briefly: Raf kinase assay (B-Raf), [33P] incorporation into MEK1(K97R). Format: biochemical. Conditions: for inhibition at 1 µM: 1.0 μM compound, read-out: B-Raf inhibition at 1.0 μM. Put shortly: (§1)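 Recombinant C-Raf (2 ng) or B-Raf or B-Raf V600E (5 ng each) phosphorylated 500 ng MEK1(K97R) with 8 μM ATP plus [33P]ATP, pH 7.5, 30 min at 30 °C. Filter-captured 33P counted. IC50 from 3-fold compound dilutions run in duplicate.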
B-Raf, sequence (P15056 whole entry): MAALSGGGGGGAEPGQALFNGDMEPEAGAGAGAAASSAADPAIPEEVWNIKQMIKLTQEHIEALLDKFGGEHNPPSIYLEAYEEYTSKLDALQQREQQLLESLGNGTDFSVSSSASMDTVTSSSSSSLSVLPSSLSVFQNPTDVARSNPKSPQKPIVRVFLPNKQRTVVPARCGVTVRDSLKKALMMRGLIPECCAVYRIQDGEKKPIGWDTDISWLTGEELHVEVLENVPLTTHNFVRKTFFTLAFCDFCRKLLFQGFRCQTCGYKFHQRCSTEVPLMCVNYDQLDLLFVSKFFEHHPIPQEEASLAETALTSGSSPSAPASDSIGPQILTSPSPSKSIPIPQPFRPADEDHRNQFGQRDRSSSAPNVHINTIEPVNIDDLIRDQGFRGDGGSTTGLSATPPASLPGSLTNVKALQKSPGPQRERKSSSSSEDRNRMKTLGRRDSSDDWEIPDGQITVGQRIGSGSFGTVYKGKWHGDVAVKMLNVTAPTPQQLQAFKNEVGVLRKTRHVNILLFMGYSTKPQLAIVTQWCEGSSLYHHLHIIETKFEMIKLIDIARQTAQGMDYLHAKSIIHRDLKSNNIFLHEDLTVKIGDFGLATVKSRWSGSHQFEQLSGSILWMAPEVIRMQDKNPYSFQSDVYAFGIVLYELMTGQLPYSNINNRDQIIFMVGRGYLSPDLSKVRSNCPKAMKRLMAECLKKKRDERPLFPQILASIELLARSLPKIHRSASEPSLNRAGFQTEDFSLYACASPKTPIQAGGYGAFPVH

For assay [2], the target named is B-Raf (V600E) (Homo sapiens (Human), UniProt P15056, V600E). Description: Raf kinase assay (B-Raf (V600E)), [33P] incorporation into MEK1(K97R). Format: biochemical. Put shortly: as §1
B-Raf (V600E), sequence (P15056 whole entry V600E): as the sequence (P15056 whole entry) above, with V600E counted along it
Assay [3] addresses C-Raf (Homo sapiens (Human), UniProt P04049). Description: Raf kinase assay (C-Raf), [33P] incorporation into MEK1(K97R). Format: biochemical. Put shortly: as §1
Assay [4] has as its system A549. Description: Anti-proliferative activity, CellTiter-96 assay, A549. The assay is classed as cell-based. Conditions: Homo sapiens, A549 cells, 72 hours incubation. As for the experimental part: (§2) Antiproliferative Activity
(§3) The anti-proliferative activities of the compounds with formula (I) and formula (II) with respect to four human cancer cell lines (A549, A375, MDA-MB-231, and COLO205) were measured using the CellTiter™-96 assay kit (Promega) following the manufacturer's instructions. In brief, the cells were maintained in DMEM containing 10% FCS and incubated at 37° C. in 5% CO2 atmosphere. Cells were plated at a density of 2000 cells/well of a 96-well plate for 24 h, then treated with different concentrations of the compounds, and incubated for another 72 hours. At the end of the incubation, CellTiter™-96 Aqueous One Solution Reagent (Promega) was added and incubated for another 4.0 hours. Cell viability was determined by measuring absorbance at 490 nm using EMax® microplate reader (Molecular Devices). Data were processed and analyzed using GraphPad Prism version 4.

The subject of assay [5] is A375. Description: Anti-proliferative activity, CellTiter-96 assay, A375. Format: cell-based. Conditions: Homo sapiens, A-375, A375 cells, 72 hours incubation. The procedure: as §2, §3
In assay [6] the test system is MDA-MB-231. Description: Anti-proliferative activity, CellTiter-96 assay, MDA-MB-231. Format: cell-based. Conditions: Homo sapiens, MDA-MB-231 cells, 72 hours incubation. As for the experimental part: as §2, §3
Assay [7] deals with COLO205. Briefly: Anti-proliferative activity, CellTiter-96 assay, COLO205. Format: cell-based. Conditions: Homo sapiens, COLO 205, COLO205 cells, 72 hours incubation. As for the experimental part: as §2, §3

As usually defined, the IC50 is the concentration that inhibits the measured activity by half. High values mean lower potency, low ones higher potency. As a reminder, the inhibition is the relative decrease from the control value, in per cent.

SMILES strings stand for the structures. Bounds are passed on as bounds.

C-Raf, sequence (P04049 whole entry): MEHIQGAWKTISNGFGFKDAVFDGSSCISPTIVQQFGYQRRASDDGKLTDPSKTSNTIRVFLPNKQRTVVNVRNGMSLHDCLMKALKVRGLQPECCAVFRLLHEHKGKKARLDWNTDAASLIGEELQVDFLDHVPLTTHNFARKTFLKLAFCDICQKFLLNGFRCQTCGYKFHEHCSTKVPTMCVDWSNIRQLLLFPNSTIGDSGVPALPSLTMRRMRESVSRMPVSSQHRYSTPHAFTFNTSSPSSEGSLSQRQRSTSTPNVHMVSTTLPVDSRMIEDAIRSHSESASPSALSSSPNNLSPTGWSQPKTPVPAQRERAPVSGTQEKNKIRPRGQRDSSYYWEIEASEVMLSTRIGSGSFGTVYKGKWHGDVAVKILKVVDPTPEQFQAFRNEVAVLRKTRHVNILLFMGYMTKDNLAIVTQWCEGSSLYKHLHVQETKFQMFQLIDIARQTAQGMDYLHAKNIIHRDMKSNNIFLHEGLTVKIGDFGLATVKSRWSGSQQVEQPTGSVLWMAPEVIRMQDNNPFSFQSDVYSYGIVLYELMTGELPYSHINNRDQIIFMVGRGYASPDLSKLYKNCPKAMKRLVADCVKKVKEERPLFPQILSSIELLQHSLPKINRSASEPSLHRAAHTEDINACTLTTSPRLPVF

As to `COc1cc(-c2ccc3nccc(Nc4cccc5[nH]ncc45)c3c2)ccc1O` [Compound 103, 4-(4-(1H-indazol-4-ylamino)quinolin-6-yl)-2-methoxyphenol], the 50% inhibitory concentration (IC50) in assay [1] stood at 164 nM; in assay [2], 211 nM; in assay [3] it was 354 nM; in assay [4], 3200 nM; in assay [5], 6600 nM; in assay [6], 4000 ± 200 nM. In assay [7], the IC50 was determined as 8900 nM. Further, the inhibition at 1 µM in assay [1] was found to be 85.2%.

With `CCCS(=O)(=O)Nc1cccc(-c2ccc3ncnc(Nc4cccc5[nH]ncc45)c3c2)c1` [Compound 109, N-(3-(4-(1H-indazol-4-ylamino)quinazolin-6-yl)phenyl)propane-1-sulfonamide], the IC50 turned out to be 126 nM in assay [1]; 164 nM in assay [2]; 521 nM in assay [3]; 16900 ± 600 nM in assay [4]; 14200 ± 1000 nM in assay [5]; 10100 ± 1100 nM in assay [6]. Moreover, in assay [7], the concentration for half-maximal inhibition (IC50) came out at 13600 ± 1500 nM. The inhibition at 1 µM in assay [1] was 85.1%.

For `COc1cccc(-c2ccc3nccc(Nc4cccc5[nH]ncc45)c3c2)c1F` [Compound 111, 6-(2-fluoro-3-methoxyphenyl)-N-(1H-indazol-4-yl)quinolin-4-amine], the IC50 was 83.4 nM in assay [1]; 99.9 nM in assay [2]; 290 nM in assay [3]; 25100 ± 7100 nM in assay [4]; 36300 ± 1700 nM in assay [5]; 26500 ± 7300 nM in assay [6]. In assay [7], this molecule showed a 50% inhibitory concentration (IC50) of 32300 ± 8500 nM. For the same molecule, the inhibition at 1 µM in assay [1] came to 89.1%.

Turning to `N#Cc1cccc(-c2ccc3nccc(Nc4cccc5[nH]ncc45)c3c2)c1` [Compound 114, 3-(4-(1H-indazol-4-ylamino)quinolin-6-yl)benzonitrile], the IC50 in assay [1] was 99.2 nM; in assay [2], 123 nM; in assay [3] it was 287 nM; in assay [4], 4800 ± 1600 nM; in assay [5] it was 6300 ± 700 nM; in assay [6] it was 6200 ± 600 nM. Also, inhibition in assay [7] was half-maximal at 2600 ± 400 nM (IC50). Moreover, the inhibition at 1 µM in assay [1] came out at 82.3%.

As for `COc1ccc(-c2ccc3nccc(Nc4cccc5[nH]ncc45)c3c2)cc1C=O` [Compound 116, 5-(4-(1H-indazol-4-ylamino)quinolin-6-yl)-2-methoxybenzaldehyde], the 50% inhibitory concentration (IC50) in assay [1] was 99.6 nM; in assay [2], 117 nM; in assay [3] it was 233 nM; in assay [4], 6400 ± 700 nM; in assay [5] it was 5400 ± 700 nM; in assay [6], 6200 ± 400 nM. Half-maximal inhibition in assay [7] (IC50) was put at 6300 ± 200 nM. Moreover, the inhibition at 1 µM in assay [1] amounted to 88.4%.

On to `NC(=O)c1cccc(-c2ccc3nccc(Nc4cccc5[nH]ncc45)c3c2)c1` [Compound 117, 3-(4-(1H-indazol-4-ylamino)quinolin-6-yl)benzamide], for which the half-inhibitory concentration (IC50) in assay [1] came to 107 nM; in assay [2], 114 nM; in assay [3] it was 321 nM; in assay [4], 23500 ± 500 nM; in assay [5], 23700 ± 2400 nM; in assay [6], 13600 ± 900 nM. The molecule also showed an IC50 in assay [7] of 8900 ± 100 nM. Besides, the inhibition at 1 µM in assay [1] turned out to be 86.6%.

On to `CS(=O)(=O)c1ccc(-c2ccc3nccc(Nc4cccc5[nH]ncc45)c3c2)cc1` [Compound 120, N-(1H-indazol-4-yl)-6-(4-(methylsulfonyl)phenyl)quinolin-4-amine], for which the half-maximal inhibitory concentration (IC50) in assay [1] was determined as 134 nM; in assay [2] it was 119 nM; in assay [3], 277 nM; in assay [4], 12100 ± 3200 nM; in assay [5], 8500 ± 1200 nM; in assay [6], 10900 ± 1400 nM. In addition, it took 7300 ± 1000 nM to reach half-maximal inhibition in assay [7] (IC50). The inhibition at 1 µM in assay [1] came to 88.2%.

In the case of `Oc1ccc(-c2ccc3nccc(Nc4cccc5[nH]ncc45)c3c2)cc1` [Compound 124, 4-(4-(1H-indazol-4-ylamino)quinolin-6-yl)phenol], the IC50 in assay [1] was 188 nM; in assay [2], 185 nM; in assay [3], 409 nM; in assay [4], 6100 ± 600 nM; in assay [5], 7300 ± 600 nM; in assay [6] it was 8500 ± 1400 nM. Also, half-maximal inhibition in assay [7] (IC50) was put at 9600 ± 600 nM. For the same molecule, the inhibition at 1 µM in assay [1] came out at 82.4%.

As to `COc1cc(-c2ccc3ncnc(Nc4cccc5[nH]nc(Cl)c45)c3c2)ccc1O` [Compound 126, 4-(4-(3-chloro-1H-indazol-4-ylamino)quinazolin-6-yl)-2-methoxyphenol], the concentration for half-maximal inhibition (IC50) in assay [1] came to 142 nM; in assay [2], 162 nM; in assay [3] it was 287 nM; in assay [4] it was 2700 ± 1700 nM; in assay [5], 2900 ± 1600 nM; in assay [6], 2400 ± 1100 nM. This molecule also showed an IC50 in assay [7] of 16800 ± 9300 nM. The inhibition at 1 µM in assay [1] was 83.6%.

Consider `Oc1cccc(Nc2ncnc3ccc(-c4ccccc4)cc23)c1` [Compound 133, 3-(6-phenylquinazolin-4-ylamino)phenol], for which the IC50 in assay [1] was 168 nM; in assay [2], 254 nM; in assay [3], 6640 nM; in assay [4] it was 9300 ± 1300 nM; in assay [5], 6000 ± 1000 nM; in assay [6], 33800 ± 6900 nM. In assay [7], this molecule displayed an IC50 of 11500 ± 800 nM. Moreover, the inhibition at 1 µM in assay [1] was 85.8%.

As for `Nc1ccc(F)c(-c2ccc3nccc(Nc4cccc5[nH]ncc45)c3c2)c1` [Compound 137, 6-(5-amino-2-fluorophenyl)-N-(1H-indazol-4-yl)quinolin-4-amine], the IC50 in assay [1] stood at 149 nM; in assay [2], 152 nM; in assay [3], 1330 nM; in assay [4], 10800 ± 700 nM; in assay [5], 23600 ± 1200 nM; in assay [6] it was 19500 ± 2100 nM. Also, half-maximal inhibition in assay [7] (IC50) required 8300 ± 400 nM. In addition, the inhibition at 1 µM in assay [1] was 78.2%.

Consider `COc1cc(-c2ccc3ncnc(Nc4cc(O)ccc4C)c3c2)ccc1O` [Compound 154, 4-(4-(5-hydroxy-2-methylphenylamino)quinazolin-6-yl)-2-methoxyphenol], for which the concentration for half-maximal inhibition (IC50) in assay [1] came to 60 nM; in assay [2], 70.9 nM; in assay [3], 590 nM; in assay [4] it was 900 ± 500 nM; in assay [5] it was 1000 ± 200 nM; in assay [6], 1000 ± 100 nM. The molecule also gave a 50% inhibitory concentration (IC50) in assay [7] of 6400 ± 600 nM. The inhibition at 1 µM in assay [1] turned out to be 88.4%.

As for `COc1cc(-c2ccc3ncnc(Nc4cc(O)c(C)cc4F)c3c2)ccc1O` [Compound 156, 4-fluoro-5-(6-(4-hydroxy-3-methoxyphenyl)quinazolin-4-ylamino)-2-methylphenol], the IC50 in assay [1] is 57.3 nM; in assay [2], 81.7 nM; in assay [3], 301 nM; in assay [4], 1600 ± 400 nM; in assay [5], 1900 ± 300 nM; in assay [6] it was 2800 ± 200 nM. This molecule also showed an IC50 in assay [7] of 9600 ± 3800 nM. Also, the inhibition at 1 µM in assay [1] was found to be 92.4%.

In the case of `COc1cc(-c2ccc3ncnc(Nc4ccc(Cl)c(O)c4)c3c2)ccc1O` [Compound 157, 4-(4-(4-chloro-3-hydroxyphenylamino)quinazolin-6-yl)-2-methoxyphenol], the IC50 in assay [1] was 26.8 nM; in assay [2], 37.5 nM; in assay [3], 161 nM; in assay [4], 2500 ± 800 nM; in assay [5], 2900 ± 600 nM; in assay [6], 4700 ± 300 nM. The molecule also gave an IC50 in assay [7] of 7800 nM. Besides, the inhibition at 1 µM in assay [1] came to 92%.

`COc1cc(-c2ccc3ncnc(Nc4cc(O)c(F)cc4F)c3c2)ccc1O` [Compound 158, 2,4-difluoro-5-(6-(4-hydroxy-3-methoxyphenyl)quinazolin-4-ylamino)phenol]: the IC50 came out at 3.8 nM in assay [1]; 7.1 nM in assay [2]; 36.3 nM in assay [3]; 900 ± 400 nM in assay [4]; 400 ± 100 nM in assay [5]; 1200 ± 100 nM in assay [6]. This molecule also yielded a concentration for half-maximal inhibition (IC50) in assay [7] of 5100 ± 1000 nM. In assay [1], the inhibition at 1 µM worked out at 96.4%.

With `COc1cc(-c2ccc3ncnc(Nc4cc(O)c(Cl)cc4F)c3c2)ccc1O` [Compound 159, 2-chloro-4-fluoro-5-(6-(4-hydroxy-3-methoxyphenyl)quinazolin-4-ylamino)phenol], the IC50 in assay [1] worked out at 11.1 nM; in assay [2], 19.7 nM; in assay [3], 69.2 nM; in assay [4] it was 2900 ± 400 nM; in assay [5], 2300 ± 500 nM; in assay [6], 4300 ± 600 nM. Also, 7900 ± 1900 nM corresponded to half-maximal inhibition in assay [7] (IC50). Also, in assay [1], the inhibition at 1 µM was 97.4%.

Turning to `Oc1cc(Nc2ncnc3ccc(-c4ccc(Cl)cc4)cc23)c(F)cc1F` [Compound 160, 5-(6-(4-chlorophenyl)quinazolin-4-ylamino)-2,4-difluorophenol], the IC50 is 8.9 nM in assay [1]; 19 nM in assay [2]; 147 nM in assay [3]; above 30000 nM in assay [4]; 8200 ± 1300 nM in assay [5]; above 30000 nM in assay [6]. For the same molecule, the half-inhibitory concentration (IC50) in assay [7] was found to be 20900 ± 12600 nM. For the same molecule, the inhibition at 1 µM in assay [1] stood at 97.9%.
